# ChEMBL document CHEMBL1201862, “PubChem BioAssay data set” (2004)
#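 48-hour exposure; five concentrations; linearly interpolated endpoints. At the GI50, growth is halved.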 Calls of active or inactive are those of the source. No stated cut-off is given here; in the data, active = GI50 up to about 1.1 µM and inactive = higher.
# What was measured:
# Test in all cases: inhibition of tumour cell growth, NCI panel, 48 h
# [1] = tested on: UACC-257
# [2] = tested on: RPMI-8226
# [3] = tested on: SK-MEL-5
# [4] = tested on: 786-0
# [5] = tested on: KM12
# [6] = tested on: SK-MEL-28
# [7] = tested on: UACC-62
# [8] = tested on: OVCAR-3
# [9] = tested on: COLO 205
# [10] = tested on: CAKI-1
# [11] = tested on: MOLT-4
# [12] = tested on: Malme-3M
# [13] = tested on: NCI-H23
# [14] = tested on: SK-OV-3
# [15] = tested on: IGROV-1
# [16] = tested on: Hs-578T
# [17] = tested on: SW-620
# [18] = tested on: SF-539
# [19] = tested on: SK-MEL-2
SMILES,GI50 [1],GI50 [2],GI50 [3],GI50 [4],GI50 [5],GI50 [6],GI50 [7],GI50 [8],GI50 [9],GI50 [10],GI50 [11],GI50 [12],GI50 [13],GI50 [14],GI50 [15],GI50 [16],GI50 [17],GI50 [18],GI50 [19]
O=c1[nH]c(=O)n(C2CC(O)C(CO)O2)cc1OCCc1ccccc1 (stereo not drawn),> 100 µM (inactive),> 100 µM (inactive),> 100 µM (inactive),> 100 µM (inactive),> 100 µM (inactive),> 100 µM (inactive),> 100 µM (inactive),> 100 µM (inactive),> 100 µM (inactive),> 100 µM (inactive),> 100 µM (inactive),> 100 µM (inactive),> 100 µM (inactive),> 100 µM (inactive),> 100 µM (inactive),> 100 µM (inactive),–,–,–
CCOC(=O)c1nc2cc(C(F)(F)F)ccc2nc1Nc1cc(OC)c(OC)c(OC)c1,> 100 µM (inactive),> 100 µM (inactive),> 100 µM (inactive),> 100 µM (inactive),> 100 µM (inactive),> 100 µM (inactive),> 100 µM (inactive),> 100 µM (inactive),> 100 µM (inactive),> 100 µM (inactive),> 100 µM (inactive),> 100 µM (inactive),> 100 µM (inactive),> 100 µM (inactive),> 100 µM (inactive),> 100 µM (inactive),> 100 µM (inactive),> 100 µM (inactive),–
CN(C)CCNc1ncnc2nc(-c3ccccc3)c(-c3ccccc3)nc12,> 100 µM (inactive),–,> 100 µM (inactive),> 100 µM (inactive),> 100 µM (inactive),> 100 µM (inactive),> 100 µM (inactive),> 100 µM (inactive),> 100 µM (inactive),> 100 µM (inactive),0.094 µM (active),> 100 µM (inactive),> 100 µM (inactive),> 100 µM (inactive),> 100 µM (inactive),> 100 µM (inactive),> 100 µM (inactive),> 100 µM (inactive),> 100 µM (inactive)
N#Cc1cc(C#N)c(Cl)nc1N,–,> 10 µM (inactive),> 10 µM (inactive),> 10 µM (inactive),> 10 µM (inactive),> 10 µM (inactive),> 10 µM (inactive),> 10 µM (inactive),> 10 µM (inactive),–,> 10 µM (inactive),> 10 µM (inactive),> 10 µM (inactive),> 10 µM (inactive),> 10 µM (inactive),> 10 µM (inactive),> 10 µM (inactive),> 10 µM (inactive),> 10 µM (inactive)
CCCS(=O)(=O)Nc1ccc(Nc2c3ccccc3nc3ccccc23)c(OC)c1,5.53 µM (inactive),–,2 µM (inactive),0.807 µM (active),1.92 µM (inactive),–,0.695 µM (active),2.3 µM (inactive),2.16 µM (inactive),0.4 µM (active),0.0211 µM (active),1.04 µM (active),0.421 µM (active),2.08 µM (inactive),1.31 µM (inactive),3.16 µM (inactive),2.08 µM (inactive),1.17 µM (inactive),2.86 µM (inactive)
Cn1c(COC(=O)NC2CCCCC2)c(COC(=O)NC2CCCCC2)c2ccc3cc(C=O)ccc3c21,> 100 µM (inactive),–,> 100 µM (inactive),83.6 µM (inactive),> 100 µM (inactive),–,> 100 µM (inactive),> 100 µM (inactive),> 100 µM (inactive),> 100 µM (inactive),> 100 µM (inactive),> 100 µM (inactive),> 100 µM (inactive),> 100 µM (inactive),> 100 µM (inactive),35.3 µM (inactive),> 100 µM (inactive),> 100 µM (inactive),> 100 µM (inactive)
Clc1cc2nn(C3CCCCO3)nc2cc1Cl (stereo not drawn),> 100 µM (inactive),–,> 100 µM (inactive),> 100 µM (inactive),> 100 µM (inactive),–,> 100 µM (inactive),> 100 µM (inactive),> 100 µM (inactive),> 100 µM (inactive),> 100 µM (inactive),> 100 µM (inactive),> 100 µM (inactive),> 100 µM (inactive),> 100 µM (inactive),> 100 µM (inactive),–,> 100 µM (inactive),> 100 µM (inactive)
COC(=O)c1c(C(=O)OC)c(C(c2ccccc2)c2ccccc2)n(-c2ccccc2)c1Cl,7.14 µM (inactive),3.35 µM (inactive),> 10 µM (inactive),> 10 µM (inactive),4.69 µM (inactive),> 10 µM (inactive),9.33 µM (inactive),5.66 µM (inactive),6.03 µM (inactive),> 10 µM (inactive),2.24 µM (inactive),5.79 µM (inactive),6.76 µM (inactive),–,> 10 µM (inactive),3.43 µM (inactive),7.43 µM (inactive),> 10 µM (inactive),–
O=c1[nH]c(=O)c2c3n(cc2[nH]1)CCCCC3,> 100 µM (inactive),> 100 µM (inactive),> 100 µM (inactive),> 100 µM (inactive),> 100 µM (inactive),> 100 µM (inactive),> 100 µM (inactive),–,> 100 µM (inactive),> 100 µM (inactive),> 100 µM (inactive),> 100 µM (inactive),> 100 µM (inactive),> 100 µM (inactive),> 100 µM (inactive),> 100 µM (inactive),–,–,–
CCCC(=O)/C=C/S/C=C/C(=O)CCC,2.27 µM (inactive),–,4.26 µM (inactive),2.1 µM (inactive),15.3 µM (inactive),3.96 µM (inactive),12.2 µM (inactive),4.09 µM (inactive),2.23 µM (inactive),2.86 µM (inactive),–,7.28 µM (inactive),2.84 µM (inactive),34.4 µM (inactive),21.6 µM (inactive),4.67 µM (inactive),2.28 µM (inactive),10.7 µM (inactive),27.5 µM (inactive)
COc1ccc(N[S+]([O-])c2ccc(Cl)cc2)cc1 (stereo not drawn),17.9 µM (inactive),39.4 µM (inactive),28.4 µM (inactive),49.8 µM (inactive),7.31 µM (inactive),> 100 µM (inactive),8.43 µM (inactive),90.4 µM (inactive),> 100 µM (inactive),–,20.6 µM (inactive),24.3 µM (inactive),50.5 µM (inactive),–,10.5 µM (inactive),23.1 µM (inactive),49.1 µM (inactive),11.9 µM (inactive),24.5 µM (inactive)
Cc1ccc(S(=O)(=O)n2cc(C#N)c(C#N)c2)cc1,29.2 µM (inactive),–,21.3 µM (inactive),36.2 µM (inactive),31 µM (inactive),15.5 µM (inactive),17.3 µM (inactive),22.5 µM (inactive),28.6 µM (inactive),26.1 µM (inactive),31.8 µM (inactive),15.6 µM (inactive),29.8 µM (inactive),19.1 µM (inactive),31.1 µM (inactive),24.7 µM (inactive),34.6 µM (inactive),19.6 µM (inactive),24.3 µM (inactive)
